Data reported in publication PMC9960827, “Cloning and Characterization of Trypanosoma congolense and T. vivax Nucleoside Transporters Reveal the Potential of P1-Type Carriers for the Discovery of Broad-Spectrum Nucleoside-Based Therapeutics against Animal African Trypanosomiasis” (International Journal of Molecular Sciences, 2023).

Experiments:
[1] = biological target: T. congolense adenosine transporter; test: [3H]-adenosine uptake and its inhibition in T. congolense IL3000 bloodstream forms; format: cell-based, Trypanosoma congolense
Method: (§1) Uptake assays using radiolabeled trypanocides and/or nucleosides were carried out as described previously. Briefly, parasite cultures were harvested, washed twice in assay buffer (33 mM HEPES, 98 mM NaCl, 4.6 mM KCl, 0.5 mM CaCl2, 0.07 mM MgSO4, 5.8 mM NaH3PO4, 0.03 mM MgCl2, 23 mM NaHCO3, 14 mM D-glucose, pH 7.3), then resuspended and adjusted to a density of 1 × 10^8 cells/mL in assay buffer. The radiolabeled permeant in the presence or absence of different concentrations of potential inhibitors reconstituted in 100 μL assay buffer was deposited on top of 250 μL oil mix in microcentrifuge tubes; 1 × 10^7 parasites in 100 μL assay buffer were added to the tube and incubated for a pre-determined interval. The reaction was stopped by the addition of 1 mL of a high concentration of ice-cold unlabeled substrate in assay buffer (‘stop solution’) and centrifugation, or by immediate centrifugation at […] as appropriate. The microcentrifuge tubes were flash-frozen, and the bottom of each tube containing the cell pellet was cut off and transferred to a scintillation vial. Cell pellets were lysed in 2% SDS, after which scintillation fluid (Scintlogic U, Lablogic) was added, followed by overnight incubation in the dark. Scintillation was measured in a 300SL (Hidex) scintillation counter (Hidex). All the assays were conducted in triplicate and analysis was carried out using Microsoft Excel and GraphPad Prism. All kinetic parameters were obtained on at least 3 separate occasions.
(§2) The dose-dependent uptake assay allowed for the affinity of nucleoside analogs to different nucleoside transporters to be determined by measuring the extent to which the analogs compete with and inhibit the uptake of radiolabel adenosine. This allowed for the determination of biochemical parameters such as Km and Vmax through the application of the Michaelis–Menten equation V0 = Vmax([substrate]/([substrate] + Km)). The 50% Inhibitory Concentration (IC50) of the purines and pyrimidines and their analogs was determined from non-linear regression to sigmoid curves with variable slope (Prism 8), and the IC50 of the inhibitor and the Km of the labeled permeant were then used to calculate the inhibition constant (Ki) of the analogs through the Cheng–Prusoff equation: Ki = IC50/(1 + (L/Km)), where L denotes the radiolabel concentration. The calculated Ki was in turn used to determine the Gibbs free energy (ΔG^0) of the inhibitor–transporter interaction using the equation: ΔG^0 = -RTln(Ki), where R represents the gas constant and T symbolizes the absolute temperature in Kelvin [104].

TcoAT1 = format: cell-based, Trypanosoma congolense; conditions: for Ki: 0.05 µM [3H]-adenosine, 10 s, IC50 converted to Ki, read-out: Ki on the transport of [3H]-adenosine; for ΔG0: Gibbs free energy of binding, from Km or Ki
From the text: (§3) The information for the T. congolense adenosine transporter (TcoAT1) and four putative T. vivax nucleoside transporters was obtained in the TritrypDB (tritrypdb.org/tritrypdb) genome database. Primers were designed to flank each gene upstream of the 5′ end (forward) and downstream of the 3′ end (reverse) as described (primer sequences in Supplementary Table S2). Following amplification from the genomic DNA of T. congolense or T. vivax, DNA for each extracted gene was ligated into the pNUS-HcN expression vector doubly digested with NdeI using the NEBuilder kit according to the manufacturer’s instructions (New England Biolabs). Construct was transformed into competent E. coli cells, and ligation was confirmed by restriction enzyme digestion of isolated plasmid DNA followed by Sanger sequencing (Source BioScience, Nottingham, UK). Confirmed plasmids were then transfected into L. mexicana cell line in which both NT1 and NT2 were doubly knocked out (SUPKO) and derived from L. mexicana Cas9 [64] as described. Clones grown in medium containing 50 μg/mL neomycin (G418) were collected for further confirmation by PCR with genomic DNA using a forward primer of the transporter gene and a reverse primer of the plasmid.
as §1, §2

TvxNT3 = TvxNT3 (Trypanosoma vivax, UniProt F9WV62); test: cell-based; format: cell-based
TvxNT3, sequence (F9WV62 entry or part of it): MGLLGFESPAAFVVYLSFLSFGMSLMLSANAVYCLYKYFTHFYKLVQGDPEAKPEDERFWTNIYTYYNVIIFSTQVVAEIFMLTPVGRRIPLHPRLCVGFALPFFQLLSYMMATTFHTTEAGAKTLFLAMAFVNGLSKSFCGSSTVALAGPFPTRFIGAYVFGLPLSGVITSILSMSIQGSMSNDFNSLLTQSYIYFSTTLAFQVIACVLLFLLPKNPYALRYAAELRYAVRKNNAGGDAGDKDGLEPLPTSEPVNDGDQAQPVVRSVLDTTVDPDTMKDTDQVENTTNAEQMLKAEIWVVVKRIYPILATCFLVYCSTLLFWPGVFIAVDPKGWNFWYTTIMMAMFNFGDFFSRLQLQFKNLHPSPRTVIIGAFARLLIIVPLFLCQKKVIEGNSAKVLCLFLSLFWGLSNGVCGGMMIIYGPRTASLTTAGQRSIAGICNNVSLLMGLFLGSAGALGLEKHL
From the text: as §3, §1, §2

[2] = biological target: T. b. brucei P1 (TbP1/NT2); conditions: cited from earlier work
TbNT10 = test system: TbNT10; design: method as in Al-Salabi et al. [40]; conditions: called Km values; ref Al-Salabi et al. [40]; cited from earlier work
L. mexicana Cas9 = test: Resazurin drug sensitivity assay, LmexCas9; format: cell-based, Leishmania mexicana; conditions: Leishmania mexicana, read-out: LmexCas9 EC50
Method: (§4) EC50 values were determined by plotting to an equation for a sigmoid curve with variable slope (GraphPad Prism 8). All values were the average of at least three independent determinations on different days.

L. mexicana SUPKO+TcoAT1 = test: microbe, parasite or virus in culture; format: cell-based, Leishmania mexicana; conditions: for EC50: Leishmania mexicana, read-out: SUPKO+TcoAT1 EC50; for SUPKO+TcoAT1 RF (SUPKO): Resistance Factor relative to SUPKO
Method: as §4

L. mexicana SUPKO+TvxNT3 = test: microbe, parasite or virus in culture; format: cell-based, Leishmania mexicana; conditions: for EC50: Leishmania mexicana, read-out: SUPKO+TvxNT3 EC50; for SUPKO+TvxNT3 RF (SUPKO): Resistance Factor relative to SUPKO
Method: as §4

L. mexicana SUPKO = test: microbe, parasite or virus in culture; format: cell-based, Leishmania mexicana; conditions: for EC50: Leishmania mexicana, read-out: SUPKO EC50, resazurin, promastigotes; for SUPKO RF (Cas9): Resistance Factor = EC50(SUPKO)/EC50(Cas9)
Method: as §4

T. congolense IL3000 = test: Alamar Blue (resazurin) assay, T. congolense IL3000; format: cell-based, Trypanosoma congolense; conditions: Trypanosoma congolense, read-out: T. congolense IL3000 EC50
Method: as §4

T. congolense 6C3 = test: microbe, parasite or virus in culture; format: cell-based, Trypanosoma congolense; conditions: for EC50: Trypanosoma congolense, diminazene resistant strain, resazurin, read-out: T. congolense 6C3 EC50; for T. congolense 6C3 RF: resistance factor = EC50 (test strain)/EC50(control strain)
Method: as §4

T.b.b. B48 = test: Alamar Blue (resazurin) assay, T. b. brucei B48; format: cell-based, Trypanosoma brucei brucei; conditions: Trypanosoma brucei, read-out: T.b.b. B48 EC50
Method: as §4

T. evansi = test: Alamar Blue (resazurin) assay, T. evansi; format: cell-based, Trypanosoma evansi; conditions: Trypanosoma evansi, read-out: T. evansi EC50
Method: as §4

T. equiperdum = test: Alamar Blue (resazurin) assay, T. equiperdum; format: cell-based, Trypanosoma equiperdum; conditions: Trypanosoma equiperdum, read-out: T. equiperdum EC50
Method: as §4

[3] = Resazurin toxicity assay on human embryonic kidney cells; format: cell-based; conditions: human
Method: as §4

[4] = test system: human embryonic kidney (HEK) cells; test: as above; format: cell-based; conditions: for SI T. congolense: selectivity index = EC50 (HEK cells)/EC50 (T. congolense); for SI T. equiperdum: selectivity index = EC50 (HEK cells)/EC50 (T. equiperdum); for SI T. evansi: selectivity index = EC50 (HEK cells)/EC50 (T. evansi)
Method: as §4

T. vivax = test system: T. vivax; design: method as in Mabille et al. [69]; conditions: added for comparison only; ref Mabille et al. [69]; cited from earlier work

SMILES | Ki (TcoAT1) | ΔG0 (TcoAT1) | EC50 (L. mexicana Cas9) | EC50 (L. mexicana SUPKO+TcoAT1) | SUPKO+TcoAT1 RF (SUPKO) (L. mexicana SUPKO+TcoAT1) | EC50 (L. mexicana SUPKO+TvxNT3) | SUPKO+TvxNT3 RF (SUPKO) (L. mexicana SUPKO+TvxNT3) | EC50 (L. mexicana SUPKO) | SUPKO RF (Cas9) (L. mexicana SUPKO) | EC50 (T. congolense IL3000) | EC50 (T. congolense 6C3) | T. congolense 6C3 RF (T. congolense 6C3) | EC50 (T.b.b. B48) | EC50 (T. evansi) | EC50 (T. equiperdum) | EC50 [3] | SI T. congolense [4] | SI T. equiperdum [4] | SI T. evansi [4] | EC50 (T. vivax) | also measured
O=c1[nH]cnc2c1ncn2[C@@H]1O[C@H](CO)[C@@H](O)[C@H]1O [Inosine] | 550 ± 90 nM | -8.53 kcal/mol |  |  |  |  |  |  |  |  |  |  |  |  |  |  |  |  |  |  | Ki ([1]; 0.05 µM [3H]-adenosine, 30 s, IC50 converted to Ki, read-out: Ki on the transport of [3H]-adenosine): 270 ± 20 nM; ΔG0, Gibbs free energy of interaction ([1]; calculated from Km or Ki): -8.96 kcal/mol; δ(ΔG0) (TcoAT1; loss of Gibbs free energy of binding relative to the parent nucleoside): 0.163 kcal/mol; remaining activity at 100 µM (TvxNT3; 100 µM inhibitor, 50 nM [3H]-adenosine, read-out: [3H]-adenosine uptake remaining in presence of inhibitor): < 25%; δ(ΔG0) (TvxNT3; difference in ΔG0 relative to the parent purine (adenosine or inosine)): 1.21 kcal/mol; Ki ([2]; T. b. brucei bloodstream forms, read-out: Tbb P1 Ki): 440 ± 100 nM; Tbb P1 ΔG0 [2]: -8.68 kcal/mol; Km (TbNT10): 0.53 µM
Nc1ncnc2c1c(C(F)(F)F)cn2[C@@H]1O[C@H](CO)[C@@H](O)[C@H]1O [FH6367, 7-trifluoromethyl-7-deazaadenosine] |  |  | 26100 ± 6400 nM | 3790 ± 340 nM | >26.4 | 7400 ± 1400 nM | >13.5 | > 100000 nM | >3.83 | 1800 ± 440 nM | 890 ± 170 nM | 0.50 | 900 ± 130 nM | 680 ± 110 nM | 190 ± 30 nM | 490 ± 10 nM | 0.3 | 2.6 | 0.7 | 820 ± 90 nM | 
Nc1ncnc2c1c(Br)cn2[C@@H]1O[C@H](CO)C[C@H]1O [FH7429_u, 7-bromo-7-deaza-3′-deoxyadenosine] | 259000 ± 11000 nM | -4.9 kcal/mol | 27300 ± 7000 nM | 27000 ± 5800 nM | >7.4 | 42900 ± 12000 nM | >2.33 | > 250000 nM | >3.6 | 0.69 ± 0.07 nM | 0.49 ± 0.09 nM | 0.71 | 4.8 ± 0.5 nM | 0.9 ± 0.22 nM | 0.51 ± 0.07 nM | 2180 ± 410 nM | 3158 | 4271 | 2430 | 18 ± 3 nM | ΔG0 (TvxNT3; Gibbs free energy of interaction, from Km or Ki): -5.14 kcal/mol
